# Source: patent US10624887B2, “Compositions of (-)-17-(cyclobutylmethyl)morphinan-3,14,-diol” (priority 2010, dated 2020)
# Like-named read-outs stand apart in the source and are kept apart here.
# How the values were obtained:
# [1] = system: nociception in rats; experiment: Eddy's hot plate test; assay type: in vivo, Wistar rats; details: butorphanol 1 mg/kg
# Protocol: Heat is often used as a noxious stimulus in models of pain. Typically, the latency of the rat's response to the thermal stimulus is recorded as the dependent variable. To determine whether a test compound has analgesic properties, the latency responses of treated and control rats are evaluated. […] The latency of response will vary depending on the type of heat stimulus used. In the hot-plate assay, the rat is placed on a heated surface and the latency for the rat to respond to the stimulus, by licking its paw or jumping, is recorded. […]
# Three groups were employed in the present study with each group comprising of 8 animals. […] Hot plate latency was assessed at 0, 30, 45 and 60 minutes after administration of the butorphanol. Area under the curve was calculated using a graph between % MPE and time. Area under the curve was employed as a quantitative measure of the analgesic effect of the treatments.
# Nociceptive threshold was measured with the Eddy's hot plate test. […] Reaction time is expressed as a percentage of the maximum possible effect (MPE): […]
# The anti-nociceptive effect following intragastric, intra-ileal and intra-colonic administration was assessed in terms of area under the curve calculated from a graph having time (relative to dosing time point) on the x-axis and percent maximum possible effect (% MPE) on the y-axis. The results were expressed as mean±standard error of means (S.E.M.). […]
# [2] = system: streptozotocin (STZ) induced diabetes neuropathy; experiment: Streptozotocin induced diabetic neuropathy, cold allodynia (acetone drop test); assay type: in vivo, Wistar rats; details: STZ diabetic neuropathic rats
# Protocol: The aim of this study was to evaluate the effect of oral administration of butorphanol in rats with streptozotocin (STZ) induced diabetes neuropathy. A single injection of streptozotocin (STZ) (40-70 mg/kg, i.p.) was used to induce diabetes in rats. The primary measurements were made mechanical and thermal allodynia designed to detect effects of the treatment(s) on neuropathic pain.
# Wistar rats weighing 250±20 g were maintained on standard laboratory diet and having free access to tap water ad lib were employed in the present study. They were housed in the animal house and were exposed to 12 hr cycle of light and dark. The experiments were conducted in a semi-sound proof laboratory. Care of the animals was in accordance with guidelines for experimentation on animals.
# The STZ-induced diabetes model was adapted from Arison et al (1967).
# On the experimental day 1 all rats were fasted 6-8 hrs prior to STZ treatment Immediately prior to the injection, STZ was dissolved in 50 Mm sodium citrate buffer (pH 4.5) to a final concentration of 10 mg/ml. […]
# For the assessment of cold allodynia, which was stable for 3 weeks, the rats were placed on a wire mesh covered with a plastic dome and were allowed to habituate until the exploratory behavior diminished. Cold allodynia was measured as the number of foot withdrawal responses after application of stimuli to the plantar surface of the paw. […] Acetone was applied two times (once every 5 min) on the left paw, and the number of reactions (shaking, tapping, or licking) was counted during 30 sec. […] The score was expressed as accumulated numbers of reactions over the trials and determined before and 30 and 60 min after administration of the test drugs. Each individual test was expressed as a percentage of maximum possible effect (% MPE): […]
# MPE (%) at 30 min time point was employed as a quantitative measure of the analgesic effect of the test drugs.
# The anti-nociceptive effect was plotted assessed having time (relative to dosing time point) on the x-axis and percent maximum possible effect (% MPE) on the y-axis. […]
# [3] = intranasal, single dose, cited from earlier work
smiles,measurement,setting,value
"Oc1ccc2c(c1)[C@@]13CCCC[C@@]1(O)[C@@H](C2)N(CC1CCC1)CC3 [butorphanol, (−)17-(Cyclobutylmethyl)morphinan-3,14-diol]","antinociceptive effect (area under the curve of % MPE vs time), intra-colonic versus intra-gastric or intra-ileal","[1]; hot plate, FIG. 14",significantly greater antinociceptive effect
same,hot plate latency,"[1]; intra-gastric, intra-ileal and intra-colonic administration, each, rats",significant increase
same,cold allodynia score,"[2]; oral 1, 3, 10, 30 mg/kg, FIG. 20",dose dependent decrease
same,cold allodynia withdrawal threshold in comparison to the control readings,[2]; oral,significant increase
same,time of peak effect post-administration (cold allodynia),[2]; oral,30 min
same,dizziness,[3]; 1 mg,46%
same,headache,[3]; 1 mg,46%
same,nausea,[3]; 1 mg,38%
same,oxygen desaturation,[3]; 1 mg,3%
same,vomiting,[3]; 1 mg,17%
same,dizziness,[3]; 2 mg,58%
same,headache,[3]; 2 mg,29%
same,nausea,[3]; 2 mg,46%
same,oxygen desaturation,[3]; 2 mg,3%
same,vomiting,[3]; 2 mg,17%
